Patent publication US11820766B2, “Monoacylglycerol lipase modulators” (Janssen Pharmaceutica NV, priority 2018, dated 2023)

What follows are compounds tested against T1, human MGL from HeLa cells (Homo sapiens, UniProt Q99685) (assay: In vitro MGL activity assay: [glycerol-1,3-3H]-oleyl glycerol cleavage by MGL from HeLa cells). Details: 300 nM [Glycerol-1,3-3H]-oleyl glycerol, one hour incubation.
T1 construct: combining endogenously expressed MGL from HeLa cells with test compounds; endogenous in cells; host or cells: HeLa cells / cell homogenates
T1 sequence (Q99685 1-303): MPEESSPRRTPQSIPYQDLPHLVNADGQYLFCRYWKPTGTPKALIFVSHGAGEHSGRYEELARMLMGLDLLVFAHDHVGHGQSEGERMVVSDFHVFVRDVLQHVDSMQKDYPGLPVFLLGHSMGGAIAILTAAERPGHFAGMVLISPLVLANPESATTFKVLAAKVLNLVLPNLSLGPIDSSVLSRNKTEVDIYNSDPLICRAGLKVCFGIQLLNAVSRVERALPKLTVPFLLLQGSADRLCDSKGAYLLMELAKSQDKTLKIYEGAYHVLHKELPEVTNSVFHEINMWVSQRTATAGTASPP
Format: biochemical
Excerpt: MGL is the predominant hydrolase in HeLa cells/cell homogenates.

Row | Structure (SMILES) | IC50 [nM]
1 | Cn1nc2c(c1-c1ccccc1)CCN(C(=O)c1cccc3ncccc13)C2 [Example 89, (2-Methyl-3-phenyl-2,4,5,7-tetrahydro-6H-pyrazolo[3,4-c]pyridin-6-yl)(quinolin-5-yl)methanone] | 56
2 | Cn1nc2c(c1-c1ccccc1)CCN(C(=O)c1ccc3ncccc3c1)C2 [Example 90, (2-Methyl-3-phenyl-2,4,5,7-tetrahydro-6H-pyrazolo[3,4-c]pyridin-6-yl)(quinolin-6-yl)methanone] | 227
3 | CCn1nc2c(c1-c1ccccc1)CCN(C(=O)c1ccc3ncccc3c1)C2 [Example 91, (2-Ethyl-3-phenyl-2,4,5,7-tetrahydro-6H-pyrazolo[3,4-c]pyridin-6-yl)(quinolin-6-yl)methanone] | 781
4 | Cn1nc2c(c1-c1ccccc1)CCN(C(=O)c1cccc3cnccc13)C2 [Example 92, Isoquinolin-5-yl(2-methyl-3-phenyl-2,4,5,7-tetrahydro-6H-pyrazolo[3,4-c]pyridin-6-yl)methanone] | 108
5 | Cn1nc2c(c1-c1ccccc1)CCN(C(=O)c1cccc3cccnc13)C2 [Example 93, (2-Methyl-3-phenyl-2,4,5,7-tetrahydro-6H-pyrazolo[3,4-c]pyridin-6-yl)(quinolin-8-yl)methanone] | 126
6 | Cn1nc2c(c1-c1ccccc1)CCN(C(=O)c1ccc3ccccc3n1)C2 [Example 94, (2-Methyl-3-phenyl-2,4,5,7-tetrahydro-6H-pyrazolo[3,4-c]pyridin-6-yl)(quinolin-2-yl)methanone] | 282
7 | Cn1nc2c(c1-c1ccccc1)CCN(C(=O)c1cnc3ccccc3c1)C2 [Example 95, (2-Methyl-3-phenyl-2,4,5,7-tetrahydro-6H-pyrazolo[3,4-c]pyridin-6-yl)(quinolin-3-yl)methanone] | 984
8 | Cn1nc2c(c1-c1ccccc1)CCN(C(=O)c1ccnc3c(F)cccc13)C2 [Example 96, (8-Fluoroquinolin-4-yl)(2-methyl-3-phenyl-2,4,5,7-tetrahydro-6H-pyrazolo[3,4-c]pyridin-6-yl)methanone] | 258
9 | Cn1nc2c(c1-c1ccccc1)CCN(C(=O)c1cccc3nccnc13)C2 [Example 97, (2-Methyl-3-phenyl-2,4,5,7-tetrahydro-6H-pyrazolo[3,4-c]pyridin-6-yl)(quinoxalin-5-yl)methanone] | 4260
10 | Cn1nc2c(c1-c1cccc(OC(F)F)c1)CCN(C(=O)c1ccc3ncccc3c1)C2 [Example 98, (3-(3-(Difluoromethoxy)phenyl)-2-methyl-2,4,5,7-tetrahydro-6H-pyrazolo[3,4-c]pyridin-6-yl)(quinolin-6-yl)methanone] | 973
11 | Cn1nc2c(c1-c1cccc(Cl)c1)CCN(C(=O)c1ccc3ncccc3c1)C2 [Example 99, (3-(3-Chlorophenyl)-2-methyl-2,4,5,7-tetrahydro-6H-pyrazolo[3,4-c]pyridin-6-yl)(quinolin-6-yl)methanone] | 268
12 | Cn1nc2c(c1-c1cccc(F)c1)CCN(C(=O)c1ccc3ncccc3c1)C2 [Example 100, (3-(3-Fluorophenyl)-2-methyl-2,4,5,7-tetrahydro-6H-pyrazolo[3,4-c]pyridin-6-yl)(quinolin-6-yl)methanone] | 125
13 | Cn1nc2c(c1-c1cc(F)cc(F)c1)CCN(C(=O)c1ccc3ncccc3c1)C2 [Example 101, (3-(3,5-Difluorophenyl)-2-methyl-2,4,5,7-tetrahydro-6H-pyrazolo[3,4-c]pyridin-6-yl)(quinolin-6-yl)methanone] | 52.4
14 | Cc1ccc(-c2c3c(nn2C)CN(C(=O)c2noc4ccccc24)CC3)s1 [Example 102, Benzo[d]isoxazol-3-yl(2-methyl-3-(5-methylthiophen-2-yl)-2,4,5,7-tetrahydro-6H-pyrazolo[3,4-c]pyridin-6-yl)methanone] | 158

Continued, values first:

Row | IC50 [nM] | Structure (SMILES)
15 | 264 | Cn1nc2c(c1-c1ccc(C(F)(F)F)s1)CCN(C(=O)c1ccc3ncccc3c1)C2 [Example 103, (2-Methyl-3-(5-(trifluoromethyl)thiophen-2-yl)-2,4,5,7-tetrahydro-6H-pyrazolo[3,4-c]pyridin-6-yl)(quinolin-6-yl)methanone]
16 | 791 | Cn1nc2c(c1-c1cc3ccccc3[nH]1)CCN(C(=O)c1ccc3ncccc3c1)C2 [Example 104, (3-(1H-Indol-2-yl)-2-methyl-2,4,5,7-tetrahydro-6H-pyrazolo[3,4-c]pyridin-6-yl)(quinolin-6-yl)methanone]
17 | 406 | Cn1nc2c(c1-c1cc3ccccc3n1C)CCN(C(=O)c1ccc3ncccc3c1)C2 [Example 105, (2-Methyl-3-(1-methyl-1H-indol-2-yl)-2,4,5,7-tetrahydro-6H-pyrazolo[3,4-c]pyridin-6-yl)(quinolin-6-yl)methanone]
18 | 7.36 | CC1c2nn(C)c(-c3cc(F)cc(F)c3)c2CCN1C(=O)c1ccc2ncccc2c1 (centres unmarked) [Example 106, (3-(3,5-Difluorophenyl)-2,7-dimethyl-2,4,5,7-tetrahydro-6H-pyrazolo[3,4-c]pyridin-6-yl)(quinolin-6-yl)methanone]
19 | 261 | Cc1ccc(-c2c3c(nn2C)[C@H](C)N(C(=O)c2ccc4nccnc4c2)CC3)o1 [Example 107, (S)-(2,7-Dimethyl-3-(5-methylfuran-2-yl)-2,4,5,7-tetrahydro-6H-pyrazolo[3,4-c]pyridin-6-yl)(quinoxalin-6-yl)methanone]
20 | 1300 | C[C@H]1c2nn(C)c(-c3cccnc3)c2CCN1C(=O)c1ccc2nccnc2c1 [Example 108, (S)-(2,7-Dimethyl-3-(pyridin-3-yl)-2,4,5,7-tetrahydro-6H-pyrazolo[3,4-c]pyridin-6-yl)(quinoxalin-6-yl)methanone]
21 | 721 | C[C@H]1c2nn(C)c(-c3cncc(F)c3)c2CCN1C(=O)c1ccc2nccnc2c1 [Example 109, (S)-(3-(5-Fluoropyridin-3-yl)-2,7-dimethyl-2,4,5,7-tetrahydro-6H-pyrazolo[3,4-c]pyridin-6-yl)(quinoxalin-6-yl)methanone]
22 | 236 | CC1c2nn(-c3ccccc3)c(-c3ccccc3)c2CCN1C(=O)c1ccc2ncccc2c1 (centres unmarked) [Example 113, (7-Methyl-2,3-diphenyl-2,4,5,7-tetrahydro-6H-pyrazolo[3,4-c]pyridin-6-yl)(quinolin-6-yl)methanone]
23 | 199 | C[C@H]1c2nn(C)c(-c3cccc(Cl)c3)c2CCN1C(=O)c1cc(Cl)cc(OC(F)(F)F)c1 [Example 116, (S)-(3-Chloro-5-(trifluoromethoxy)phenyl)(3-(3-chlorophenyl)-2,7-dimethyl-2,4,5,7-tetrahydro-6H-pyrazolo[3,4-c]pyridin-6-yl)methanone]
24 | 56.7 | C[C@H]1c2nn(C)c(-c3cccc(Cl)c3)c2CCN1C(=O)c1ncn(-c2ccccc2)n1 [Example 117, (S)-(3-(3-Chlorophenyl)-2,7-dimethyl-2,4,5,7-tetrahydro-6H-pyrazolo[3,4-c]pyridin-6-yl)(1-phenyl-1H-1,2,4-triazol-3-yl)methanone]
25 | 13.8 | CCc1nc(C(=O)N2CCc3c(nn(C)c3-c3cccc(Cl)c3)[C@@H]2C)nn1-c1ccccc1F [Example 118, (S)-(3-(3-Chlorophenyl)-2,7-dimethyl-2,4,5,7-tetrahydro-6H-pyrazolo[3,4-c]pyridin-6-yl)(5-ethyl-1-(2-fluorophenyl)-1H-1,2,4-triazol-3-yl)methanone]
26 | 398 | C[C@H]1c2nn(C)c(-c3cccc(Cl)c3)c2CCN1C(=O)c1cc(CO)ccn1 [Example 119, (S)-(3-(3-Chlorophenyl)-2,7-dimethyl-2,4,5,7-tetrahydro-6H-pyrazolo[3,4-c]pyridin-6-yl)(4-(hydroxymethyl)pyridin-2-yl)methanone]
27 | 174 | COCc1cncc(C(=O)N2CCc3c(nn(C)c3-c3cccc(Cl)c3)[C@@H]2C)c1 [Example 120, (S)-(3-(3-Chlorophenyl)-2,7-dimethyl-2,4,5,7-tetrahydro-6H-pyrazolo[3,4-c]pyridin-6-yl)(5-(methoxymethyl)pyridin-3-yl)methanone]
28 | 330 | CC(C)Oc1ccc(C(=O)N2CCc3c(nn(C)c3-c3cccc(Cl)c3)[C@@H]2C)cn1 [Example 121, (S)-(3-(3-Chlorophenyl)-2,7-dimethyl-2,4,5,7-tetrahydro-6H-pyrazolo[3,4-c]pyridin-6-yl)(6-isopropoxypyridin-3-yl)methanone]
29 | 78.2 | CC(C)Oc1cncc(C(=O)N2CCc3c(nn(C)c3-c3cccc(Cl)c3)[C@@H]2C)c1 [Example 122, (S)-(3-(3-Chlorophenyl)-2,7-dimethyl-2,4,5,7-tetrahydro-6H-pyrazolo[3,4-c]pyridin-6-yl)(5-isopropoxypyridin-3-yl)methanone]
30 | 45.1 | C[C@H]1c2nn(C)c(-c3cccc(Cl)c3)c2CCN1C(=O)c1cccc2c1OCO2 [Example 123, (S)-Benzo[d][1,3]dioxol-4-yl(3-(3-chlorophenyl)-2,7-dimethyl-2,4,5,7-tetrahydro-6H-pyrazolo[3,4-c]pyridin-6-yl)methanone]
31 | 19.7 | C[C@H]1c2nn(C)c(-c3cccc(Cl)c3)c2CCN1C(=O)c1ccc2[nH]c(=O)oc2c1 [Example 124, (S)-6-(3-(3-Chlorophenyl)-2,7-dimethyl-4,5,6,7-tetrahydro-2H-pyrazolo[3,4-c]pyridine-6-carbonyl)benzo[d]oxazol-2(3H)-one]
32 | 9.52 | Cc1nc2ccc(C(=O)N3CCc4c(nn(C)c4-c4cccc(Cl)c4)[C@@H]3C)cc2o1 [Example 125, (S)-(3-(3-Chlorophenyl)-2,7-dimethyl-2,4,5,7-tetrahydro-6H-pyrazolo[3,4-c]pyridin-6-yl)(2-methylbenzo[d]oxazol-6-yl)methanone]
